Active and inactive are the calls of the source.
Experiments:
[1] = C. albicans growth with fluconazole, confirmation, fluorescence, retest (AID 2467); type: functional, cell-based
[2] = target: T1, Protein RecA (Mycobacterium tuberculosis, UniProt P9WHJ3); experiment: Fluorescence Cell-Free Homogeneous Dose Retest to Identify Inhibitors of RecA-Intein Splicing Activity. [Related pubchem assays (depositor defined):AID2097, AID2223, AID489010, AID492950]; type: functional
T1 sequence (P9WHJ3 whole entry): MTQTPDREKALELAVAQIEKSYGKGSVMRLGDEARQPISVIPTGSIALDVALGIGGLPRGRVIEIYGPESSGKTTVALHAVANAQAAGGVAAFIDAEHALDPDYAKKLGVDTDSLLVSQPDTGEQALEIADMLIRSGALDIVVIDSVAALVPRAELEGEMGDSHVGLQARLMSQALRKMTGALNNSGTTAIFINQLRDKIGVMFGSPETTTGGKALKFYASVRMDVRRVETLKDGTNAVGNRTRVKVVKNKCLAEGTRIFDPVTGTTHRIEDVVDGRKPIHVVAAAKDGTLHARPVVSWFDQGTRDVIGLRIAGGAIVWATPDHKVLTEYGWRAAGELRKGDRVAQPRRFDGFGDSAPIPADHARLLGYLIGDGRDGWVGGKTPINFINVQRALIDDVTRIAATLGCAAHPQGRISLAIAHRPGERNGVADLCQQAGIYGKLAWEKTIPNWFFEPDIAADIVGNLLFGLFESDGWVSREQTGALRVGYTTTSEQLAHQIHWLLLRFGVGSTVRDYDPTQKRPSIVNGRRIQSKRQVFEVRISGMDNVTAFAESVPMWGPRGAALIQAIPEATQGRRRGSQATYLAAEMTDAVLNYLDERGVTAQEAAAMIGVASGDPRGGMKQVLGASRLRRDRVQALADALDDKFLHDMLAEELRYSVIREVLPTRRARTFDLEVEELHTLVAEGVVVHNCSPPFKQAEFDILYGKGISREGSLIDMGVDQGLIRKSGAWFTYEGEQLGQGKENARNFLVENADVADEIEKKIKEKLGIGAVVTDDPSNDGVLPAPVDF

[3] = test system: BJ; experiment: cells; type: functional, cell-based; details: Homo sapiens
[4] = target: Tyrosine-protein kinase FRK (Homo sapiens, UniProt P42685); type: functional;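 also: FRK tested as one member of a kinome panel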
[5] = target: Casein kinase I isoform alpha (Homo sapiens, UniProt P48729); type: functional
[6] = target: Dual specificity tyrosine-phosphorylation-regulated kinase 4 (Homo sapiens, UniProt Q9NR20); type: functional
[7] = target: Activated CDC42 kinase 1 (Homo sapiens, UniProt Q07912); experiment: Navigating the Kinome. Panel member name: ACK1; type: functional
[8] = target: cAMP-dependent protein kinase catalytic subunit alpha (Homo sapiens, UniProt P17612); type: functional
[9] = target: Mast/stem cell growth factor receptor Kit (Homo sapiens, UniProt P10721); type: functional;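 also: KIT entry within a kinase panel assay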
[10] = target: Aurora kinase A (Homo sapiens, UniProt O14965); type: functional;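 also: value from the Navigating the Kinome kinase panel profiling, panel entry STK6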
[11] = target: Protein kinase C gamma type (Homo sapiens, UniProt P05129); type: functional
[12] = target: Inhibitor of nuclear factor kappa-B kinase subunit epsilon (Homo sapiens, UniProt Q14164); experiment: Navigating the Kinome. Panel member name: IKBKE; type: functional
[13] = target: RAC-gamma serine/threonine-protein kinase (Homo sapiens, UniProt Q9Y243); type: functional
[14] = target: Cell division cycle 7-related protein kinase (Homo sapiens, UniProt O00311); type: functional;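 also: value obtained from a kinome-wide kinase panel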
[15] = target: Glycogen synthase kinase-3 beta (Homo sapiens, UniProt P49841); type: functional;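 also: value comes from a broad kinome profiling panel, with GSK3B as the panel member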
[16] = target: Vascular endothelial growth factor receptor 3 (Homo sapiens, UniProt P35916); type: functional;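 also: value from a kinome-wide profiling panel, with FLT4 as the panel member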
[17] = target: Cyclin-dependent kinase 8 (Homo sapiens, UniProt P49336); experiment: Navigating the Kinome. Panel member name: CDK8; type: functional
[18] = target: Testis-specific serine/threonine-protein kinase 2 (Homo sapiens, UniProt Q96PF2); type: functional;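 also: part of the Navigating the Kinome panel, target entry STK22B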
[19] = target: Serine/threonine-protein kinase PLK1 (Homo sapiens, UniProt P53350); type: functional;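 also: PLK1 measured as one member of a kinome-wide profiling panel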
[20] = target: Lymphokine-activated killer T-cell-originated protein kinase (Homo sapiens, UniProt Q96KB5); type: functional;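 also: value comes from a kinase panel screen in which TOPK was one of the panel members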
[21] = target: Platelet-derived growth factor receptor beta (Homo sapiens, UniProt P09619); type: functional;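 also: value comes from a kinome panel, with PDGFRB tested as one panel member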
[22] = target: Aurora kinase B (Homo sapiens, UniProt Q96GD4); type: functional
[23] = target: Macrophage-stimulating protein receptor (Homo sapiens, UniProt Q04912); experiment: Navigating the Kinome. Panel member name: MST1R; type: functional
[24] = target: Serine/threonine-protein kinase Chk1 (Homo sapiens, UniProt O14757); type: functional;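 also: measured as one member of a kinome-wide kinase profiling panel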
[25] = target: LIM domain kinase 1 (Homo sapiens, UniProt P53667); experiment: Navigating the Kinome. Panel member name: LIMK1; type: functional
[26] = target: Tyrosine-protein kinase Srms (Homo sapiens, UniProt Q9H3Y6); type: functional;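 also: SRMS measured as one member of a kinome-wide kinase profiling panel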
[27] = target: Tyrosine-protein kinase SYK (Homo sapiens, UniProt P43405); type: functional
[28] = target: MAP kinase-interacting serine/threonine-protein kinase 2 (Homo sapiens, UniProt Q9HBH9); type: functional
[29] = target: Albumin (Bos taurus, UniProt P02769); experiment: Counterscreen for inhibitors of T-cell receptor (TCR)-CD3 interaction: Fluorescence-based biochemical high throughput dose response assay to identify inhibitors of T-cell receptor (TCR)-CD3 interaction using a TAMRA-labeled BSA probe.; type: functional
Albumin, sequence (P02769 whole entry): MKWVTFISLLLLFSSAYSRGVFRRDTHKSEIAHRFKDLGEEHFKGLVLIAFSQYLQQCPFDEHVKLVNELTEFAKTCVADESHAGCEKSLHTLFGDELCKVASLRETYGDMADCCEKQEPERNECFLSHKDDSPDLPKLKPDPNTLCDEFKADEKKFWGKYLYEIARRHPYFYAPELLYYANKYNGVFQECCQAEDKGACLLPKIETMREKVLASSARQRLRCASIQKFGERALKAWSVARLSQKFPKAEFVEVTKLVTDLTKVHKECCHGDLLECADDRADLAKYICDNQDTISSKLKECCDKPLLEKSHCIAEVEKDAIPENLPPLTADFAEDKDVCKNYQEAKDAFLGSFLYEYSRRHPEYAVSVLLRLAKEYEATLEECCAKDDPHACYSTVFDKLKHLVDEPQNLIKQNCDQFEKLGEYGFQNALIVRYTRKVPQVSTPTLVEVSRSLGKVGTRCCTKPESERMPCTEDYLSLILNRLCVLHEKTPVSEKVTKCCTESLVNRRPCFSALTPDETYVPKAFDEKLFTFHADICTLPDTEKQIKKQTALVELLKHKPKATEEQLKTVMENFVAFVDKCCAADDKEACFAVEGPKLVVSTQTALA

Tyrosine-protein kinase Srms, sequence (Q9H3Y6 whole entry): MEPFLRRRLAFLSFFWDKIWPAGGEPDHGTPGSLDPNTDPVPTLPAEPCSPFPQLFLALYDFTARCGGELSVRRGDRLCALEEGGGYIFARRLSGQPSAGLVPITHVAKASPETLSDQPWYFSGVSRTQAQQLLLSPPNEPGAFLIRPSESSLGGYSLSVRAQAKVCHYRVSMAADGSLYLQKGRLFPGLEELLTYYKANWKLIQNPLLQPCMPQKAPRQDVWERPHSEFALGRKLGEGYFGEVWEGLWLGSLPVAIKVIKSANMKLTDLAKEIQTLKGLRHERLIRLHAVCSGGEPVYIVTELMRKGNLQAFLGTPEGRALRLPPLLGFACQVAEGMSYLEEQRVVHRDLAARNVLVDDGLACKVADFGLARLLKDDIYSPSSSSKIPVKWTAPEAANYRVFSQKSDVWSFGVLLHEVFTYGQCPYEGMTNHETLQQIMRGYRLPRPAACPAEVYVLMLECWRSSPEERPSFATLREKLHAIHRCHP
Activated CDC42 kinase 1, sequence (Q07912 whole entry): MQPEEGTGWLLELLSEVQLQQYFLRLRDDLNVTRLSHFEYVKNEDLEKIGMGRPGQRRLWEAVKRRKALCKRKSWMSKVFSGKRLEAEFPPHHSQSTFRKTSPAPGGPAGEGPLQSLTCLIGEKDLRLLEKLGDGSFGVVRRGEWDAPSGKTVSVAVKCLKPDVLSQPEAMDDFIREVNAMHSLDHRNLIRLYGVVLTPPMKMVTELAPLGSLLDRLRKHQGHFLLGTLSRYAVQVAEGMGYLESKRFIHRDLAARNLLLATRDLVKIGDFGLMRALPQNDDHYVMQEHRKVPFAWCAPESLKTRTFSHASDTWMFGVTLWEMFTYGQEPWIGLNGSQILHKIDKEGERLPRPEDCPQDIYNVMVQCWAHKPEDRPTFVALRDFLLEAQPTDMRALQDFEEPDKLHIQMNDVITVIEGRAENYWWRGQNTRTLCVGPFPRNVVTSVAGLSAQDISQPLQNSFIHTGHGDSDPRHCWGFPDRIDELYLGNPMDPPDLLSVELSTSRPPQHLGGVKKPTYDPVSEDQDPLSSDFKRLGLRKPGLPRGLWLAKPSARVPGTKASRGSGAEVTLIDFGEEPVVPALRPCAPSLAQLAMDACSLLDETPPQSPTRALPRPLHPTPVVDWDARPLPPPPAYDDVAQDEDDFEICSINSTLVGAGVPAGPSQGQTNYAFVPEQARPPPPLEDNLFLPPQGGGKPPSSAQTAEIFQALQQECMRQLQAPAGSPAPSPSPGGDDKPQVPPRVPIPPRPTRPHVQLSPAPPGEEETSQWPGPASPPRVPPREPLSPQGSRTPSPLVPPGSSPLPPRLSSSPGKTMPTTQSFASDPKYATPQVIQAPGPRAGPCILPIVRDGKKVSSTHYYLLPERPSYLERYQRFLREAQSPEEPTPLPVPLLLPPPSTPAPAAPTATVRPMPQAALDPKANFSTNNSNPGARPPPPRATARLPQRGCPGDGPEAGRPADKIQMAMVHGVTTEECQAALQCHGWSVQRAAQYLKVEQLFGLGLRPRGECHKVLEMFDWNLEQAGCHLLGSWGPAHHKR
Inhibitor of nuclear factor kappa-B kinase subunit epsilon, sequence (Q14164 whole entry): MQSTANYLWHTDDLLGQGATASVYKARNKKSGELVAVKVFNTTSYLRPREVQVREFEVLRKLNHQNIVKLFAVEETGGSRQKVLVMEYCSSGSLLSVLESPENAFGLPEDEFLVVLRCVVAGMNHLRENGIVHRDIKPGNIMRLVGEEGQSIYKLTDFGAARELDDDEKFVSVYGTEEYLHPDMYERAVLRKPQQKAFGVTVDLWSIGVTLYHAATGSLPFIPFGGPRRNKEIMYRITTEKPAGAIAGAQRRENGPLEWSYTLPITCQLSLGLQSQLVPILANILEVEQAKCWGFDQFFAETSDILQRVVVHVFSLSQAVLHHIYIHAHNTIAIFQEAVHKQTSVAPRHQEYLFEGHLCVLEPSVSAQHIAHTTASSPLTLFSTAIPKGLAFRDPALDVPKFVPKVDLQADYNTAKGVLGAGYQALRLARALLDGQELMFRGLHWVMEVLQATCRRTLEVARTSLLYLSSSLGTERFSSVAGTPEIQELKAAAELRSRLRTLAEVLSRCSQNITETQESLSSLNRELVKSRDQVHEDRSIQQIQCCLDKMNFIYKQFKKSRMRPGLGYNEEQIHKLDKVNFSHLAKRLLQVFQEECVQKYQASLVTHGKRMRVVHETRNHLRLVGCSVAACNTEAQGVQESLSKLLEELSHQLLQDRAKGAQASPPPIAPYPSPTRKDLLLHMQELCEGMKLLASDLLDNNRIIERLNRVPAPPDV
Aurora kinase A, sequence (O14965 whole entry): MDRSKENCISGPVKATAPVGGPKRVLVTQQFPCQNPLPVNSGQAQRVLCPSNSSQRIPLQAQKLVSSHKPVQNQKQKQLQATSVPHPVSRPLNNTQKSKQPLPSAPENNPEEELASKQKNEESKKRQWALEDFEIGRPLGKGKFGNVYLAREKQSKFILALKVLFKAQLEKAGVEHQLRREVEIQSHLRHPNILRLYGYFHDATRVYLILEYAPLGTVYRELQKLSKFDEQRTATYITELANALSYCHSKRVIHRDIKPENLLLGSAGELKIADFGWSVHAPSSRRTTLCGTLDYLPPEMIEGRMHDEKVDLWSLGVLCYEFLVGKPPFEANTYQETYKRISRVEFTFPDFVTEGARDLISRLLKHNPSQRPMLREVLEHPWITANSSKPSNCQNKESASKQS
MAP kinase-interacting serine/threonine-protein kinase 2, sequence (Q9HBH9 whole entry): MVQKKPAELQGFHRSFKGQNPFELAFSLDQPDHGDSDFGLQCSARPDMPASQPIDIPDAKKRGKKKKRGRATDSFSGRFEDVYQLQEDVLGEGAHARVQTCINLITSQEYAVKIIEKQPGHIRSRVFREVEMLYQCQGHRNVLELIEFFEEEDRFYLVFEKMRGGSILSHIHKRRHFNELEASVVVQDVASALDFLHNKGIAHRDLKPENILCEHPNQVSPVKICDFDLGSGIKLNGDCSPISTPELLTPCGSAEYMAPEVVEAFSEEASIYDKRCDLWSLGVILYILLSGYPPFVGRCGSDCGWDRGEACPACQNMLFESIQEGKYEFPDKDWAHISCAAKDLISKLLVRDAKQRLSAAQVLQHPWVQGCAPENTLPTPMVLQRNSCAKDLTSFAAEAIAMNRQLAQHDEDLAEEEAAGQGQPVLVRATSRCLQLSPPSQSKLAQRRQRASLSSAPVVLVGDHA
Dual specificity tyrosine-phosphorylation-regulated kinase 4, sequence (Q9NR20 whole entry): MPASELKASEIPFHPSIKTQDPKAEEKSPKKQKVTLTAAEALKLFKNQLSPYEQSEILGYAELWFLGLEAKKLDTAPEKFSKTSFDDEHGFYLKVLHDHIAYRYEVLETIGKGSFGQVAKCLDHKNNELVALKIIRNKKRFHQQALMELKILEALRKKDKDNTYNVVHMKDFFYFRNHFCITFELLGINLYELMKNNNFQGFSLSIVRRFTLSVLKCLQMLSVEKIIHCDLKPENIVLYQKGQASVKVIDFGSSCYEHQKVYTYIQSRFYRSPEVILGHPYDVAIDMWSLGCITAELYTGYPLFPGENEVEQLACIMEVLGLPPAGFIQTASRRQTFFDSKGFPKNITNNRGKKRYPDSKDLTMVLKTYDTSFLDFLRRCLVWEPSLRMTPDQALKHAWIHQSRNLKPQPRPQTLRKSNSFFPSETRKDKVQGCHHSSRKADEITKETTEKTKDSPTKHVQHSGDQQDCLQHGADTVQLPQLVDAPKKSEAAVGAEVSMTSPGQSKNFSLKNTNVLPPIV

CN(C)S(=O)(=O)Oc1cccc(C(=O)Nc2ccc(Cl)c(Cl)c2)c1
active: EC50 [1] 0.574 µM

COC(=O)C1CN(C#N)N(c2ccc(Cl)cc2)C12c1ccccc1-c1ccccc12 (centres undefined)
active: EC50 [2] 7 µM | EC50 [3] 2.9 µM

Nc1noc2cccc(-c3cccc(O)c3)c12
active: Ki [4] 0.0398 µM | Ki [7] 25.1 µM | Ki [8] 2.51 µM | Ki [12] 39.8 µM | Ki [17] 0.501 µM | Ki [21] 7.94 µM | Ki [22] 3.98 µM | Ki [23] 20 µM | Ki [25] 2.51 µM | Ki [28] 1 µM
inactive: Ki [5] > 5.01 µM | Ki [6] > 7.94 µM | Ki [9] > 1.26 µM | Ki [10] > 31.6 µM | Ki [11] > 7.94 µM | Ki [13] > 10 µM | Ki [14] > 1.26 µM | Ki [15] > 50.1 µM | Ki [16] > 6.31 µM | Ki [18] > 1.58 µM | Ki [19] > 7.94 µM | Ki [20] > 10 µM | Ki [24] > 7.94 µM | Ki [26] > 1.58 µM | Ki [27] > 1.58 µM

O=C1NC(=S)S/C1=C\C=C\c1ccc([N+](=O)[O-])o1
inactive: IC50 [29] > 94.1 µM

From ChEMBL document CHEMBL1201862, “PubChem BioAssay data set” (2004)
